Read-outs that look alike come from different tables or passages of the source.
Experiments:
[1] = system: BORA, SGOL2, KIF20A and DEPDC-1; experiment: mRNA expression of mitosis genes by RT-PCR in tissue samples; type: in vivo, human; details: 32 patients from the dose escalation part
Procedure: (§1) Blood and tissue samples were taken for PD on-target effects during mitosis of TAS-119. First, the rate of phosphorylated histone H3 (pHH3) immunohistochemistry-positive cells to total cells were measured in paired skin biopsies and paired tumour samples collected prior to first TAS-119 administration as well as after receiving TAS-119 on day 4 of cycle 1. In case of target engagement, an increase in pHH3 is expected because of cells that will stagnate in mitosis. Second, pre- and post-dose mRNA expression of genes involved in mitosis, BORA, SGOL2, KIF20A and DEPDC-1, was analysed in tissue samples by reverse transcriptase-polymerase chain reaction.

TRK-C = system: TRK-C; parameters: method as in doi:10.1016/S0959-8049(14)70524-6; details: pre-clinical data; cited from earlier work
advanced solid tumours = experiment: Antitumour activity by RECIST v1.1; type: in vivo, human
Procedure: Adverse events (AEs) at baseline and during the study were recorded and graded based on the Common Terminology Criteria for Adverse Events v4.03. Tumour measurements were done at the end of every second cycle or as per the Institutional standard of care in case of clinical indications. Response were assessed using Response Evaluation Criteria in Solid Tumours (RECIST) v1.1.[19]
Planned enrolment in the dose escalation part included 18–30 evaluable patients, with 3–6 DLT evaluable patients in each DL. To further assess the feasibility as well as preliminarily efficacy of the RP2D, approximately 40 patients were planned to be enrolled into the expansion part (approximately 10–15 patients in each of the expansion cohorts). An additional 20 patients were pre-planned to be enrolled in an extension of the expansion part provided that either an overall response rate (ORR) of ≥20% for each specific indication or ≥10% for patients with MYC-amplified or β-catenin-mutated tumours had been observed.

AurB = system: AurB; parameters: method as in doi:10.1016/S0959-8049(14)70524-6; details: pre-clinical data; cited from earlier work
AurC = system: AurC; parameters: method as in doi:10.1016/S0959-8049(14)70524-6; details: pre-clinical data; cited from earlier work
[2] = system: phosphorylated histone H3 (pHH3); experiment: pHH3 immunohistochemistry in paired skin biopsies and paired tumour samples; type: in vivo, human
Procedure: as §1

[3] = cited from earlier work
ROS = system: ROS; parameters: method as in doi:10.1016/S0959-8049(14)70524-6; details: pre-clinical data; cited from earlier work
AurA = system: AurA; parameters: method as in doi:10.1016/S0959-8049(14)70524-6; details: pre-clinical data; cited from earlier work
RET = system: RET; parameters: method as in doi:10.1016/S0959-8049(14)70524-6; details: pre-clinical data; cited from earlier work
[4] = in vivo; cited from earlier work
[5] = Plasma and urine pharmacokinetics in patients (LC-MS/MS, non-compartmental); type: in vivo, human; details: for mean ratio of AUC0 − last (accumulation): RP2D level DL 2.1, 200 mg BID; for Tmax: po, all dose levels; for CL renal: urine, urine 0 to 12 h, cycle 1 day 1
Procedure: Blood samples for PK analysis were collected in cycle 1, on days 1, 4 and 18 pre-dose and at 0.5, 1, 2, 3, 5, 8, and 12 h post-dose. Urine samples were collected on day 1 of cycle 1 before dosing and from 0 to 12 h after dosing. Plasma and urine concentrations of TAS-119 were determined by validated liquid chromatography–tandem mass spectrometry method. PK parameters included the peak plasma concentration (Cmax), time to reach maximum concentration in plasma (Tmax), area under the plasma concentration–time curve up to the last observable concentration (AUC0 − last) and up to infinity (AUC0 − inf), terminal phase elimination half-life (T1/2), clearance (CL/F), apparent volume of distribution (Vd/F), renal clearance (CLr) and oral clearance (CL/F).
The influence of polymorphisms of SLCO1B1 encoding the drug influx transporter OATP1B1 was examined in a blood sample obtained pre-dose on day 1 of cycle 1 for all patients during the dose escalation part. MYC amplification and β-catenin mutation were assessed in archival formalin-fixed paraffin-embedded tumour samples obtained after enrolment of the patient into the study.
Descriptive statistics were used to summarise safety data (AEs, vital signs and clinical laboratory results) overall response based on RECIST, PK and PD data. PK parameters were calculated by standard non-compartmental methods using Phoenix^TMWinNonlin® (Ver 6.3 or later, Certara L.P.). Dose proportionality of TAS-119 was evaluated with a power model and a linear regression model using logarithmic values of PK parameters such as Cmax and AUCs, as well as a one-way analysis of variance (ANOVA) using dose-normalised parameters such as Cmax, AUCs, CL/F, and apparent volume of distribution (Vd/F). Student’s t test was used to test statistical significance of the PD data and calculate the mean ratio for AUC0 − last at RP2D or MTD. Influence of SLCO1B1 genotypes on PK parameters was tested by ANOVA.

TRK-A = system: TRK-A; parameters: method as in doi:10.1016/S0959-8049(14)70524-6; details: pre-clinical data; cited from earlier work
TRK-B = system: TRK-B; parameters: method as in doi:10.1016/S0959-8049(14)70524-6; details: pre-clinical data; cited from earlier work

## Cc1cc(Nc2nc(CC3(C(=O)O)CCN(C(=O)c4cccc(Cl)c4Cl)CC3)ccc2F)n[nH]1 [TAS-119]
[1]
  mRNA expression level of mitosis genes after dosing: no significant increase
TRK-C
  IC50: 1.47 ± 0.04 nM
Advanced solid tumours; DL 2 (150 mg BID)
  patients with stable disease as best response: 6 patients
Advanced solid tumours; DL 2.1 (200 mg BID continuous schedule)
  patients with stable disease as best response: 4 patients
Advanced solid tumours; DL 2.1 (200 mg BID)
  patients with stable disease as best response: 4 patients
Advanced solid tumours; dose escalation part
  complete or partial response: no complete response (CR) or partial response (PR)
Advanced solid tumours; dose escalation part, fourteen patients
  stable disease as best response: 41%
Advanced solid tumours; epithelial mesothelioma, DL 2 (150 mg BID), at cycle 4
  patients with unconfirmed PR: One
Advanced solid tumours; expansion part
  target ORR of 20% (or ≥10% for MYC amplification or β-catenin mutation): not met
Advanced solid tumours; expansion part, 200 mg BID
  complete or partial response: no confirmed CR or PR
Advanced solid tumours; expansion part, MYC-amp/B-cat mutation-positive tumours
  patients with stable disease: 5 patients
Advanced solid tumours; expansion part, SCLC
  patients with stable disease: 5 patients
Advanced solid tumours; expansion part, basket cohort (1 mesothelioma, 1 colorectal cancer)
  patients with stable disease: 2 patients
Advanced solid tumours; expansion part, breast cancer
  patients with stable disease: 1 patients
AurB
  IC50: 95 nM
AurC
  IC50: 36.5 nM
[2]; 55 paired samples, pre-dose versus day 4 of cycle 1, p value <0.0001
  mean pHH3-positive rate in skin samples after administration: increased
[2]; eight paired tumour samples
  mean pHH3 rate in paired tumour samples: did not significantly change
[3]; animals, considerable individual variation
  microscopic findings in pre-clinical high-dose toxicity study: degeneration and regeneration or hyperplasia of epithelial tissue
[3]; cyclic administration 4 days on/3 days off, pre-clinical
  vomiting and liquid faeces, cyclic administration versus daily administration: less frequent vomiting and liquid faeces
[3]; only in dogs
  microscopic findings in pre-clinical high-dose toxicity study, eyes: involvement of the epithelium of the eyes
ROS
  IC50: 29.3 ± 0.8 nM
AurA
  IC50: 1.04 nM
RET
  IC50: 25.8 ± 1.5 nM
[4]
  severely toxic dose in 10% of exposed animals (STD10): 63 mg/kg BID
[5]; 70–300 mg BID, power model, linear model and one-way ANOVA
  increase of plasma exposure with dose: dose-proportional
[5]; ANOVA
  CL/F and Vd/F among SLCO1B1 polymorphism-caused phenotypes (normal/intermediate/low): no statistical differences
[5]; day 4
  mean ratio of AUC0 − last (accumulation): 1.3
[5]; day 18
  mean ratio of AUC0 − last (accumulation): 1.2
[5]; continuous 200 mg BID schedule (DL 2.1), day 18
  ratio of AUC0 − last (accumulation): 1.1
[5]; human, in vivo
  accumulation ratios throughout all DLs: low
[5]; human, plasma, oral, blood concentrations, across dose levels
  half-life: 2.8 to 6 h
[5]; human, plasma, plasma, oral, read-out: Tmax range
  Tmax: 0.5 to 2 h
[5]; human, plasma, plasma, oral, read-out: median Tmax
  Tmax: 1.2 h
[5]; human, oral, read-out: CLr (renal clearance), median (converted)
  CL renal: 4.17 mL/min
[5]; human, oral, read-out: CLr (renal clearance), range
  CL renal: 2.5 to 5.17 mL/min
[5]; plasma
  oral clearance (CL/F), median: 9.79 L/h
  oral clearance (CL/F), range: 2.72 to 13.94 L/h
TRK-A
  IC50: 1.46 ± 0.16 nM
TRK-B
  IC50: 1.53 ± 0.12 nM

From paper PMC7852567, “A first-in-human phase 1 and pharmacological study of TAS-119, a novel selective Aurora A kinase inhibitor in patients with advanced solid tumours” (British Journal of Cancer, 2020)
